Reference: PMC13403234, “Engineering Cathepsin S Selective Chemical Probes and Antibody−Drug Conjugates through Substrate Profiling with Unnatural Amino Acids” (Journal of Medicinal Chemistry, 2026)
*1 amine or outer side, *2 acyl side, *3 side chain or, on linkers, in order; H or OH if unused. Where a SMILES comes first, the peptide text is derived from it. [ ]: non-standard residue; d: D form. The star is where a group is joined. Dolaproine = CO[C@@H]([C@@H]1CCCN1)[C@@H](C)C(=O)O; Dil = CC[C@H](C)[C@H](NC)[C@@H](CC(=O)O)OC; Met(O2) = CS(=O)(=O)CC[C@H](N)C(=O)O; PABC = O=C(OCc1ccc(N[*:1])cc1)[*:2]; X1 = C[C@@H](N*)[C@@H](O)c1ccccc1; tBuAla = CC(C)(C)C[C@H](N)C(=O)O; Cit = NC(=O)NCCC[C@H](N)C(=O)O; NMeV = CN[C@H](C(=O)O)C(C)C; Cbz = O=C(OCc1ccccc1)*

How the values were obtained:
[1] = system: MDA-MB-231 cells; test: MTS cell viability assay, MDA-MB-231; assay type: cell-based, human; settings: TROP-2-positive MDA-MB-231 cells
Procedure: The BT-474 (ATCC HTB-20, RRID: CVCL_0179), MCF-7 (ATCC HTB-22, RRID: CVCL_0031), and MDA-MB-231 (ATCC HTB-26, RRID: CVCL_0062) breast cancer cell lines were cultured at 37 °C in a humidified incubator with 5% CO2. Cells were maintained in Dulbecco’s Modified Eagle Medium (DMEM; Gibco, Cat. No. 41965−039) supplemented with 10% fetal bovine serum (FBS; Gibco, Cat. No. A5256801), L-glutamine, sodium pyruvate, penicillin […], and streptomycin (0.1 mg/mL). All cell lines were routinely tested for mycoplasma contamination (every 12−16 weeks) using a PCR-based detection kit.
Cell viability was evaluated using the MTS assay (CellTiter 96 AQueous One Solution Cell Proliferation Assay, Promega, Cat. No. G358B) according to the manufacturer’s instructions. BT-474 cells were seeded at a density of 20,000 cells/well, while MCF-7 and MDA-MB-231 cells were seeded at 5,000 cells/well in 96-well plates and allowed to adhere overnight. Peptide prodrugs, free MMAE (used as a control), or ADCs were added in serial dilutions. For peptide prodrugs and MMAE, concentrations ranged from 0.001 to 10 μM; for ADCs, from 0.03 to 3 μM. […] Absorbance was measured at 490 nm. Background absorbance (blank wells) was subtracted from all readings, and cell viability was calculated as a percentage relative to untreated controls. […]

[2] = ADC stability in mouse serum (free MMAE by LC-MS/MS); assay type: in vitro ADME; settings: anti-TROP-2 sacituzumab-based ADCs, up to 1 week, 37 °C
Procedure: Selected ADCs were incubated at 0.1 mg/mL in 100 μL of plasma samples for 24, 48, 72, and 168 h at 37 °C. The samples were then frozen at −80 °C and subjected to LC-MS/MS analysis. Stock solutions of MMAE and MMAE-d 8 standards were prepared in DMSO at a concentration of 10 mM and stored at −20 °C until use. Calibration solutions were prepared by diluting the stock solutions with methanol/ethanol (50:50, v/v). Mouse and human serum were purchased from Sigma-Aldrich. The concentration of MMAE in serum samples was determined based on the method described by Mak et al., with minor modifications. Briefly, 10 μL of serum was spiked with 5 μL of 25 nM MMAE-d 8 as an internal standard (IS), followed by the addition of 35 μL of ice-cold ethanol/methanol (50:50, v/v). The mixture was vortexed for 5 min and then incubated at − 20 °C for 30 min to precipitate proteins. The samples were subsequently centrifuged for 30 min at 20,000 × g and 4 °C. The supernatant was collected and subjected to LC-MS analysis. A Waters Acquity Premier UPLC system (Massachusetts, USA), consisting of a binary pump, thermostatic column holder, and refrigerated sample manager, was used for chromatographic separation. Separation was performed on an Acquity UPLC BEH C18 column (2.1 × 50 mm, 1.7 μm) using 0.1% formic acid in water as mobile phase A and 0.1% formic acid in methanol as mobile phase B. The column temperature and sample manager temperature were maintained at 45 and 15 °C, respectively. The injection volume was 1 μL, and the flow rate was 0.3 mL/min. The gradient started at 20% B, increased to 90% B over 3 min, and was held at 90% B for 2 min. Finally, the column was equilibrated back to 20% B for 1 min. The total run time was 6 min. MS analysis was performed using a Waters Xevo TQ-Absolute XR triple quadrupole mass spectrometer (Massachusetts, USA) equipped with an electrospray ionization interface. Samples were analyzed in positive multiple reaction monitoring (MRM) mode. […] MMAE and MMAE-d8 were detected based on their characteristic MRM transitions and retention times. […]

[3] = molecular target: T1, Cathepsin S (Homo sapiens, UniProt P25774); test: Prodrug cleavage / MMAE release by LC-MS, cathepsin S; assay type: biochemical; settings: prodrug 50 μM, pH 5.5, 37 °C, 0-120 min
T1 construct: made in house
Procedure: (§1) Cleavage assays were conducted at 37 °C in 1 mL reaction volumes using acetate buffer composed of 100 mM sodium acetate (pH 5.5), 100 mM NaCl, 1 mM EDTA, and 5 mM DTT. Buffers were prepared at room temperature and equilibrated before use. Prodrugs were initially dissolved in DMSO at a stock concentration of 10 mM, then diluted into the reaction buffer to a final concentration of 50 μM, maintaining a DMSO concentration below 0.5% (v/v). Reactions were initiated by the addition of recombinant cathepsin and carried out in glass LC-MS vials incubated at 37 °C. At specified time points (0, 5, 30, 60, and 120 min), aliquots were taken and directly injected into the LC-MS system without further processing. Quantification of MMAE release was based on absorbance at 220 nm. The area under the MMAE peak was integrated, and the amount of released MMAE was plotted as a function of time. Each time point was measured in triplicate, and results are presented as mean ± standard deviation (SD). A standard curve was prepared using free MMAE at concentrations of 1, 5, 10, 20, and 50 μM to enable accurate quantification of MMAE released from the prodrugs.

[4] = system: cathepsins B, L, and V; test: Prodrug cleavage / MMAE release by LC-MS, other cathepsins; assay type: biochemical, human; settings: prodrug 50 μM, pH 5.5, 37 °C
Procedure: as §1

[5] = molecular target: T1, Cathepsin S; test: Second-order rate constants of inhibition (kobs/[I]), cathepsin S; assay type: biochemical; settings: Figure 4D
Procedure: (§2) All kinetic studies were performed using an fMax fluorescence plate reader (Molecular Devices) in kinetic mode with 96- or 384-well plates. ACC fluorescence was monitored at excitation and emission wavelengths of 355 and 460 nm, respectively. Recombinant human cysteine cathepsins L, V, B, K, and S were expressed and purified as previously described. Prior to use, all cysteine cathepsins were titrated with E64 to normalize enzymatic activity. Assays for cathepsins were conducted in 100 mM sodium acetate buffer containing 10 mM NaCl and 10 mM DTT (pH 5.5). Breast cancer cell lysates (BT-474, MCF-7, MDA-MB-231) were prepared by culturing cells to confluence in the appropriate media, replacing media with PBS, and harvesting the cells using a cell scraper (without trypsin). The cells were pelleted by centrifugation (400 × g, 5 min), resuspended in PBS, and centrifuged again under the same conditions. After removal of the supernatant, the pellet was resuspended in cathepsin assay buffer (excluding DTT) and sonicated. Lysates were then clarified by centrifugation (12,000 × g, 5 min), and the supernatants were collected and stored at −80 °C until use. All enzymatic assays, including HyCoSuL library screening and kinetic analyses of synthetic substrates, inhibitors, probes and prodrugs, were conducted at 37 °C and repeated at least three times. Mean values are reported. Kinetic data were analyzed using GraphPad Prism software (version 10.4.1).
(§3) The second-order rate constants of inhibition (k obs/[I]) were determined for human recombinant cathepsins S, B, L, and V using their respective assay buffers. All measurements were performed under pseudo-first-order kinetic conditions, as previously described. Inhibitors or ABPs were serially diluted in assay buffer and transferred to a 96-well plate. Each well was supplemented with the fluorogenic substrate Cbz-Phe-Arg-AMC at a final concentration of 25 μM and preincubated for 15 min. In parallel, enzymes were preactivated in assay buffer for 15 min at room temperature. Following preincubation, the activated enzymes were added to the wells, and fluorescence was monitored immediately for 30 min. The k obs/[I] values (M^-1S^-1) were calculated from the progress curves and averaged from at least three independent experiments. Final inhibitor (or ABP) concentrations were maintained at a minimum of 5-fold excess relative to enzyme concentrations to ensure pseudo-first-order conditions. Results were analyzed in GraphPad Prism and are reported as mean ± standard deviation.

[6] = molecular target: T2, Cathepsin L (Homo sapiens, UniProt P07711); test: Second-order rate constants of inhibition (kobs/[I]), cathepsin L; assay type: biochemical; settings: Figure 4D; Cy5- and BODIPY-labeled probes
T2 construct: made in house
Procedure: as §2, §3

[7] = molecular target: T3, Cathepsin V (Homo sapiens, UniProt O60911); test: Second-order rate constants of inhibition (kobs/[I]), cathepsin V; assay type: biochemical; settings: Figure 4D; Cy5- and BODIPY-labeled probes
T3 construct: made in house
Procedure: as §2, §3

[8] = molecular target: T4, active cathepsin S in MDA-MB-231 live cells (Homo sapiens, UniProt P25774); test: Labeling of active cathepsin S in MDA-MB-231 live cells with Cy5 probes; assay type: cell-based; settings: probe 1 μM, 0,5 to 24 h
T4 construct: endogenous in cells; host or cells: MDA-MB-231
Procedure: (§4) 50,000 of MDA-MB-231 cells were seeded into 12-well plate and allowed to attach overnight. The next day, OG-233 and OG-234 probes (1 μM final concentration) were added to the cells and incubated for various times (from 0,5 h up to 24 h). Control cells were preincubated with cathepsin S inhibitors (JN1, JN4, JN7) at 25 μM for 2 h, and then incubated with OG-233 or OG-234 probes for 24 h. Next, cells were harvested and prepared for SDS-PAGE analysis as described in the above section. Electrophoresis was run for 25 min (4−12% Bis-Tris Plus 10-well gel, 200 V). Next, proteins were transferred onto the membrane (0.2 μm nitrocellulose membrane, 10 V, 60 min) and Ponceau S was used to verify equal loading and transfer. Membranes were then blocked with 5% BSA in TBS-T buffer for 1 h at RT. Membranes were next incubated anticathepsin S antibody (1:1,000, overnight, 4 °C), and the next day with a secondary antibody (IRDye 800CW, donkey anti-Goat) for 30 min at RT, and scanned at 680 and 800 nm using the Sapphire biomolecular imager (Azure Biosystems) to detect the Cy5 probes and cathepsin S. All images were analyzed with Image Studio software.

[9] = molecular target: T5, Cathepsin B (Homo sapiens, UniProt P07858); test: Second-order rate constants of inhibition (kobs/[I]), cathepsin B; assay type: biochemical; design: made in house; settings: Figure 4D; Cy5- and BODIPY-labeled probes
Procedure: as §2, §3

[10] = molecular target: T5, Cathepsin B; test: Labeling of cathepsin B in MDA-MB-231 live cells with Cy5 probes; assay type: cell-based; design: endogenous in cells; host or cells: MDA-MB-231; settings: cellular environments; probe labeling
Procedure: as §4

T1 sequence (P25774 115-331): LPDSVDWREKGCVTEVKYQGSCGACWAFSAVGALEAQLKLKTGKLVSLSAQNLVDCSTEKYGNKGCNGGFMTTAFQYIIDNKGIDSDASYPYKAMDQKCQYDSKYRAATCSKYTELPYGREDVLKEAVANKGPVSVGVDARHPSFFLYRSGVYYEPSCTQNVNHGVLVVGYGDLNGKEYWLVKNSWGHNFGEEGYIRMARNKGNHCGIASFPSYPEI
T3 sequence (O60911 114-334): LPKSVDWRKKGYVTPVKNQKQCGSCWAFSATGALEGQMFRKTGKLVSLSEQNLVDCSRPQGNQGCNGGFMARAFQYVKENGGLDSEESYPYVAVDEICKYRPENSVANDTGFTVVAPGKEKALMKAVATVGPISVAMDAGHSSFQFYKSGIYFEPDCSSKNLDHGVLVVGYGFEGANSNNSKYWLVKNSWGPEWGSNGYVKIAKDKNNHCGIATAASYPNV
T2 sequence (P07711 114-333): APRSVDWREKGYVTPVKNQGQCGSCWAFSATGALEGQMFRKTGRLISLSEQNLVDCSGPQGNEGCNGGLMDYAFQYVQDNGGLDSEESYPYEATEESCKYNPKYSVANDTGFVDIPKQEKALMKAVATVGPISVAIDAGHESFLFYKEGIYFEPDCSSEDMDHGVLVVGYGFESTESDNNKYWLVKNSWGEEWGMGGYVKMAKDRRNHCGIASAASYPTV
T4 sequence (P25774 115-331): as the sequence (P25774 115-331) above

Compound	cytotoxicity of sacituzumab (anti-TROP-2) ADCs [1]	payload release [2]	cleavage / free MMAE release by cathepsin S [3]	cleavage / free MMAE release by other cathepsins [4]	other results
313 anti-TROP-2 ADC: sacituzumab (anti-TROP-2) ADC with Phe(F5)-Cit-Lys(2ClZ)-Glu(Me) linker, PABC spacer and MMAE payload	moderate toxicity	approximately 6%	–	–	–
314 anti-TROP-2 ADC: sacituzumab (anti-TROP-2) ADC with Met(O2)-Cit-NptGly-Glu(Me) linker, PABC spacer and MMAE payload	markedly more potent	approximately 6%	–	–	–
CC[C@H](C)[C@@H]([C@@H](CC(=O)N1CCC[C@H]1[C@H](OC)[C@@H](C)C(=O)N[C@H](C)[C@@H](O)c1ccccc1)OC)N(C)C(=O)[C@@H](NC(=O)[C@H](C(C)C)N(C)C(=O)OCc1ccc(NC(=O)[C@H](CCCNC(N)=O)NC(=O)[C@@H](NC(=O)OCc2ccccc2)C(C)C)cc1)C(C)C [compound 300, Cbz-Val-Cit-PABC-MMAE, reference compound] (Cbz-V[Cit][PABC][NMeV]V[Dil][Dolaproine]-X1; N-terminus and C-terminus assumed)	–	–	efficiently cleaved by cathepsins S, B, L, and V	efficiently cleaved by cathepsins S, B, L, and V	–
CC[C@H](C)[C@@H]([C@@H](CC(=O)N1CCC[C@H]1[C@H](OC)[C@@H](C)C(=O)N[C@H](C)[C@@H](O)c1ccccc1)OC)N(C)C(=O)[C@@H](NC(=O)[C@H](C(C)C)N(C)C(=O)OCc1ccc(NC(=O)[C@H](CCC(=O)OC)NC(=O)[C@H](CC(C)(C)C)NC(=O)[C@H](CCCNC(N)=O)NC(=O)[C@H](CCS(C)(=O)=O)NC(C)=O)cc1)C(C)C [compound 314, Ac-Met(O2)-Cit-NptGly-Glu(Me)-PABC-MMAE] (Ac-[Met(O2)][Cit][tBuAla]E(OMe)[PABC][NMeV]V[Dil][Dolaproine]-X1)	–	–	also cleaved by cathepsin S	moderate cross-reactivity toward other cathepsins	–
ADC 300: sacituzumab (anti-TROP-2) ADC with pan-cathepsin Val-Cit linker, PABC spacer and MMAE payload	–	1.5%	–	–	–
Cy5-PEG(4)-Met(O2)-Cit-NptGly-Glu(Me)-AOMK [OG-234]	–	–	–	–	kobs/[I] Cath S ([5]; Cy5- and BODIPY-labeled probes): 253,000 M^-1s^-1; Selectivity S to B ([5]; calculated from kobs/[I], cathepsin S over cathepsin B): 23; Selectivity S to L ([5]; calculated from kobs/[I], cathepsin S over cathepsin L): 46; Selectivity S to V ([5]; calculated from kobs/[I], cathepsin S over cathepsin V): 32; kobs/[I] Cath L [6]: 5,530 M^-1s^-1; kobs/[I] Cath V [7]: 7,900 M^-1s^-1; detection of active cathepsin S in living cells [8]: able to detect active cathepsin S as soon as upon 3 h incubation; kobs/[I] Cath B [9]: 11,200 M^-1s^-1; off-target labeling of cathepsin B in cells [10]: minor off-target labeling of cathepsin B
